# In ChEMBL document CHEMBL4613212, “Insights of synthetic analogues of anti-leprosy agents” (Bioorg Med Chem, 2019):
# Assays:
# Mycobacterium leprae [1] = assay: Anti-leprotic activity against rifampicin-susceptible Mycobacterium leprae primary cultures at 4 weeks assessed as ATP level per 10^7 cells at 0.4 mg/L measured by bioluminescence assay (reference value: 332 +/- 46 pg); format: functional
# Mycobacterium leprae [2] = assay: Anti-leprotic activity against rifampicin-susceptible Mycobacterium leprae primary cultures at 4 weeks assessed as [3H]thymidine uptake per 5 times 10^7 cells at 0.3 mg/L incubated for 24 hrs (reference value: 1.05 +/- 0.16 pmol); format: functional
# Mycobacterium leprae [3] = assay: (§1) Inhibition of PGL1 synthesis in Mycobacterium leprae infected Swiss Webster mouse macrophages assessed as decrease in [U-14C]PA incorporation at 2 uM preincubated for 4 days post infection followed by [U-14C]PA addition and measured after 7 days by liquid scintillation counter analysis relative to control; format: functional
# Mycobacterium leprae [4] = assay: Anti-leprotic activity against rifampicin-susceptible Mycobacterium leprae primary cultures at 4 weeks assessed as [3H]thymidine uptake per 5 times 10^7 cells at 0.4 mg/L incubated for 24 hrs (reference value: 1.05 +/- 0.16 pmol); format: functional
# [5] = system: Mycobacterium tuberculosis; assay: Antitubercular activity against Mycobacterium tuberculosis H37Rv ATCC 27294 incubated for 7 days by microplate alamar blue assay; format: functional; settings: H37Rv ATCC 27294, 168 h
# Mycobacterium leprae [6] = assay: Anti-leprotic activity against rifampicin-susceptible Mycobacterium leprae subcultures at 4 weeks assessed as ATP level per 10^7 cells at 0.3 mg/L measured by bioluminescence assay (reference value: 425 +/- 64 pg); format: functional
# Mycobacterium leprae [7] = assay: Anti-leprotic activity against rifampicin-susceptible Mycobacterium leprae subcultures at 4 weeks assessed as [3H]thymidine uptake per 5 times 10^7 cells at 0.4 mg/L incubated for 24 hrs (reference value: 1.41 +/- 0.20 pmol); format: functional
# Mycobacterium leprae [8] = assay: Anti-leprotic activity against rifampicin-susceptible Mycobacterium leprae primary cultures at 4 weeks assessed as [3H]thymidine uptake per 5 times 10^7 cells at 0.2 mg/L incubated for 24 hrs (reference value: 1.05 +/- 0.16 pmol); format: functional
# Mycobacterium leprae [9] = assay: Anti-leprotic activity against rifampicin-susceptible Mycobacterium leprae subcultures at 4 weeks assessed as [3H]thymidine uptake per 5 times 10^7 cells at 0.3 mg/L incubated for 24 hrs (reference value: 1.41 +/- 0.20 pmol); format: functional
# [10] = system: Mycobacterium tuberculosis; assay: Antimycobacterial activity against Mycobacterium tuberculosis H37Rv by BACTEC radiometric growth assay; format: functional
# Mycobacterium leprae [11] = assay: Anti-leprotic activity against rifampicin-susceptible Mycobacterium leprae subcultures at 4 weeks assessed as [3H]thymidine uptake per 5 times 10^7 cells at 0.2 mg/L incubated for 24 hrs (reference value: 1.41 +/- 0.20 pmol); format: functional
# Mycobacterium leprae [12] = assay: Anti-leprotic activity against rifampicin-susceptible Mycobacterium leprae subcultures at 4 weeks assessed as ATP level per 10^7 cells at 0.4 mg/L measured by bioluminescence assay (reference value: 425 +/- 64 pg); format: functional
# Mycobacterium leprae [13] = assay: Anti-leprotic activity against rifampicin-susceptible Mycobacterium leprae primary cultures at 4 weeks assessed as ATP level per 10^7 cells at 0.3 mg/L measured by bioluminescence assay (reference value: 332 +/- 46 pg); format: functional
# Mycobacterium leprae [14] = assay: as §1, with “20” for “2”; format: functional
# [15] = Drug excretion in rat urine at 400 mg/kg, sc administered as single dose measured after 30 days; format: ADME, organism-based; settings: read-out: Drug excretion
# [16] = system: Mycolicibacterium smegmatis; assay: Antimycobacterial activity against DDS resistant Mycobacterium smegmatis ATCC 607 […]; format: functional
# Plasmodium berghei = assay: Antimalarial activity against Plasmodium berghei infected in albino mouse assessed survival against infection at 400 mg/kg, sc administered as single dose; format: functional
# Mycobacterium leprae [17] = assay: Anti-leprotic activity against Mycobacterium leprae infected in BALB/c mouse assessed as time delay in bacterial multiplication in footpad at 0.01 g/100g of diet administered via feed starting 60 or 75 day post infection up to 90 days by Shepard's kinetic method; format: functional
# [18] = system: Mycolicibacterium smegmatis; assay: Antimycobacterial activity against DDS sensitive Mycobacterium smegmatis ATCC 607 […]; format: functional
# Rattus norvegicus = assay: Effect of metallo-protein haemoglobin in rat assessed as peak methemoglobin level at 400 mg/kg, sc administered as single dose; format: ADME, organism-based; settings: in vivo
# [19] = Half life in rat at 400 mg/kg, sc administered as single dose; format: ADME, organism-based; settings: in vivo
# [20] = Drug concentration in rat blood at 400 mg/kg, sc administered as single dose; format: ADME, organism-based; settings: in vivo
# Mycobacterium leprae [21] = assay: Anti-leprotic activity against Mycobacterium leprae infected in BALB/c weanling mouse assessed as bacteria killing at 20 mg/kg, ip administrated for 60 days and measured after 1 year by Spearman-Karber technique analysis relative to control; format: functional
# Mycobacterium leprae [22] = assay: Anti-leprotic activity against Mycobacterium leprae infected in BALB/c weanling mouse assessed as bacteria killing at 20 mg/kg, ip administrated for 60 days and measured after 1 year by most probable number technique analysis relative to control; format: functional
# Mycobacterium leprae [23] = assay: Anti-leprotic activity against rifampicin-susceptible Mycobacterium leprae subcultures at 4 weeks assessed as ATP level per 10^7 cells at 0.2 mg/L measured by bioluminescence assay (reference value: 425 +/- 64 pg); format: functional
# Mycobacterium leprae [24] = assay: Anti-leprotic activity against rifampicin-susceptible Mycobacterium leprae subcultures at 4 weeks assessed as ATP level per 10^7 cells at 0.1 mg/L measured by bioluminescence assay (reference value: 425 +/- 64 pg); format: functional
# Mycobacterium leprae [25] = assay: Anti-leprotic activity against rifampicin-susceptible Mycobacterium leprae subcultures at 4 weeks assessed as [3H]thymidine uptake per 5 times 10^7 cells at 0.1 mg/L incubated for 24 hrs (reference value: 1.41 +/- 0.20 pmol); format: functional
# Mycobacterium leprae [26] = assay: Anti-leprotic activity against rifampicin-susceptible Mycobacterium leprae primary cultures at 4 weeks assessed as [3H]thymidine uptake per 5 times 10^7 cells at 0.1 mg/L incubated for 24 hrs (reference value: 1.05 +/- 0.16 pmol); format: functional
# Mycobacterium leprae [27] = assay: Anti-leprotic activity against rifampicin-susceptible Mycobacterium leprae primary cultures at 4 weeks assessed as ATP level per 10^7 cells at 0.2 mg/L measured by bioluminescence assay (reference value: 332 +/- 46 pg); format: functional
# Mycobacterium leprae [28] = assay: Anti-leprotic activity against rifampicin-susceptible Mycobacterium leprae primary cultures at 4 weeks assessed as ATP level per 10^7 cells at 0.1 mg/L measured by bioluminescence assay (reference value: 332 +/- 46 pg); format: functional
# Monocyte [29] = assay: Antiinflammatory activity in human monocytes assessed as inhibition of LPS-induced TNFaplha production at 25 uM preincubated for 15 mins followed by LPS addition and measured after 4 hrs by ELISA relative to control; format: functional
# Monocyte [30] = assay: Antiinflammatory activity in human monocytes assessed as inhibition of LPS-induced TNFaplha production at 50 uM preincubated for 15 mins followed by LPS addition and measured after 4 hrs by ELISA relative to control; format: functional
# [31] = Cytotoxicity against LPS-induced human monocytes assessed as cell viability at 50 uM by tryphan blue staining based assay relative to control; design: species or system Monocyte; settings: read-out: Activity
# Monocyte [32] = assay: Antiinflammatory activity in human monocytes assessed as inhibition of LPS-induced TNFaplha production at 5 uM preincubated for 15 mins followed by LPS addition and measured after 4 hrs by ELISA relative to control; format: functional
# [33] = Cytotoxicity against LPS-induced human monocytes assessed as cell viability at 0.5 uM by tryphan blue staining based assay relative to control; design: species or system Monocyte; settings: read-out: Activity
# Monocyte [34] = assay: Antiinflammatory activity in human monocytes assessed as inhibition of LPS-induced TNFaplha production at 0.5 uM preincubated for 15 mins followed by LPS addition and measured after 4 hrs by ELISA relative to control; format: functional
# [35] = Cytotoxicity against LPS-induced human monocytes assessed as cell viability at 25 uM by tryphan blue staining based assay relative to control; design: species or system Monocyte; settings: read-out: Activity
# [36] = Cytotoxicity against LPS-induced human monocytes assessed as cell viability at 5 uM by tryphan blue staining based assay relative to control; design: species or system Monocyte; settings: read-out: Activity
# [37] = system: Mycolicibacterium smegmatis; assay: Antimicrobial activity against Mycobacterium smegmatis incubated for 30 to 32 hrs under shaking condition; format: functional
# [38] = system: Mycolicibacterium smegmatis; assay: Antimicrobial activity against Mycobacterium smegmatis incubated for 30 to 32 hrs under shaking condition relative to control; format: functional
compound,measurement,setting,value
CO[C@H]1/C=C/O[C@@]2(C)Oc3c(C)c(O)c4c(O)c(c(/C=N/N5CCN(C)CC5)c(O)c4c3C2=O)NC(=O)/C(C)=C\C=C\[C@H](C)[C@H](O)[C@@H](C)[C@@H](O)[C@@H](C)[C@H](OC(C)=O)[C@@H]1C [RIFAMPIN],Activity,Mycobacterium leprae [1],0 pg
same,Activity,Mycobacterium leprae [2],0 pmol
same,inhibition at 2 µM,Mycobacterium leprae [3],86%
same,Activity,Mycobacterium leprae [4],0 pmol
same,MIC,[5],25 µg/mL
same,Activity,Mycobacterium leprae [6],0 pg
same,Activity,Mycobacterium leprae [7],0 pmol
same,Activity,Mycobacterium leprae [8],0.7 pmol
same,Activity,Mycobacterium leprae [9],0.73 pmol
same,MIC,[10],2 µg/mL
same,Activity,Mycobacterium leprae [11],0 pmol
same,Activity,Mycobacterium leprae [12],0 pg
same,Activity,Mycobacterium leprae [13],0 pg
NNC(=O)c1ccncc1 [ISONIAZID],MIC,[10],0.1 to 0.4 µg/mL
same,inhibition at 20 µM,Mycobacterium leprae [14],29%
CC(=O)Nc1ccc(S(=O)(=O)c2ccc(N)cc2)cc1 [MONO-N-ACETYL DAPSONE],dose excreted at 720 h,[15],50%
same,MIC,[16],> 300 µg/mL
same,Survival,Plasmodium berghei,3.5 weeks
same,Time,Mycobacterium leprae [17],60 days
same,MIC,[18],13.8 µg/mL
same,Activity,Rattus norvegicus,1.2 g/dL
same,half-life,[19],32 days
same,Drug uptake,[20],1.3 µg/mL
Nc1ccc(S(=O)(=O)c2ccc(O)cc2)cc1,MIC,[16],2010 µg/mL
same,Time,Mycobacterium leprae [17],<10 days
same,MIC,[18],12 µg/mL
NC[C@H]1O[C@H](O[C@H]2[C@H](O)[C@@H](O[C@H]3O[C@H](CO)[C@@H](O)[C@H](N)[C@H]3O)[C@H](N)C[C@@H]2N)[C@H](N)C[C@@H]1O [TOBRAMYCIN],Activity,Mycobacterium leprae [21],37%
same,Activity,Mycobacterium leprae [22],28.7%
CCCN1CCN(c2cc(O)c3nc4c5c6c7c(C)c(O)c5c(=O)c(c-4oc3c2)NC(=O)/C(C)=C\C=C\[C@H](C)[C@H](O)[C@@H](C)[C@@H](O)[C@@H](C)[C@H](OC(C)=O)[C@H](C)[C@@H](OC)/C=C/O[C@@](C)(O7)C6=O)CC1,Activity,Mycobacterium leprae [1],0 pg
same,Activity,Mycobacterium leprae [2],0 pmol
same,Activity,Mycobacterium leprae [4],0 pmol
same,Activity,Mycobacterium leprae [23],0 pg
same,Activity,Mycobacterium leprae [24],369 pg
same,Activity,Mycobacterium leprae [25],0 pmol
same,Activity,Mycobacterium leprae [6],0 pg
same,Activity,Mycobacterium leprae [7],0 pmol
same,Activity,Mycobacterium leprae [8],0.79 pmol
same,Activity,Mycobacterium leprae [9],0.84 pmol
same,Activity,Mycobacterium leprae [26],0.97 pmol
same,Activity,Mycobacterium leprae [11],1.3 pmol
same,Activity,Mycobacterium leprae [12],0 pg
same,Activity,Mycobacterium leprae [27],245 pg
same,Activity,Mycobacterium leprae [28],298 pg
same,Activity,Mycobacterium leprae [13],0 pg
CCc1cc(C(N)=S)ccn1 [ETHIONAMIDE],inhibition at 2 µM,Mycobacterium leprae [3],77%
same,inhibition at 20 µM,Mycobacterium leprae [14],97%
O=C1c2ccccc2C(=O)N1c1cnc(O)nc1O,inhibition at 25 µM,Monocyte [29],< 10%
same,inhibition at 50 µM,Monocyte [30],< 10%
same,viability at 50 µM,[31],91%
same,inhibition at 5 µM,Monocyte [32],< 10%
CCC(C)N1CCN(c2cc(O)c3nc4c5c6c7c(C)c(O)c5c(=O)c(c-4oc3c2)NC(=O)/C(C)=C\C=C\[C@H](C)[C@H](O)[C@@H](C)[C@@H](O)[C@@H](C)[C@H](OC(C)=O)[C@H](C)[C@@H](OC)/C=C/O[C@@](C)(O7)C6=O)CC1 (stereo in doubt; form 1),Activity,Mycobacterium leprae [1],0 pg
same,Activity,Mycobacterium leprae [2],0 pmol
same,Activity,Mycobacterium leprae [4],0 pmol
same,Activity,Mycobacterium leprae [23],235 pg
same,Activity,Mycobacterium leprae [24],335 pg
same,Activity,Mycobacterium leprae [25],0 pmol
same,Activity,Mycobacterium leprae [6],0 pg
same,Activity,Mycobacterium leprae [7],0 pmol
same,Activity,Mycobacterium leprae [8],0.76 pmol
same,Activity,Mycobacterium leprae [9],0.84 pmol
same,Activity,Mycobacterium leprae [26],0.92 pmol
same,Activity,Mycobacterium leprae [11],1.18 pmol
same,Activity,Mycobacterium leprae [12],0 pg
same,Activity,Mycobacterium leprae [27],233 pg
same,Activity,Mycobacterium leprae [28],279 pg
same,Activity,Mycobacterium leprae [13],0 pg
O=C1c2ccccc2C(=O)N1c1ccc(F)c(F)c1,viability at 0.5 µM,[33],92%
same,inhibition at 0.5 µM,Monocyte [34],< 10%
same,viability at 25 µM,[35],88%
same,inhibition at 25 µM,Monocyte [29],100%
same,inhibition at 50 µM,Monocyte [30],100%
same,viability at 50 µM,[31],78%
same,viability at 5 µM,[36],95%
same,inhibition at 5 µM,Monocyte [32],84%
GENTAMICIN,Activity,Mycobacterium leprae [21],60%
same,Activity,Mycobacterium leprae [22],58.5%
COc1ccc(S(=O)(=O)c2ccc(N)cc2)cc1,MIC,[16],> 500 µg/mL
same,Time,Mycobacterium leprae [17],<10 days
same,MIC,[18],256 µg/mL
CCC1(N2C(=O)c3ccccc3C2=O)C(=O)NC(=O)N(c2ccccc2)C1=O (centres undefined),viability at 0.5 µM,[33],87%
same,inhibition at 0.5 µM,Monocyte [34],12%
same,viability at 25 µM,[35],73%
same,inhibition at 25 µM,Monocyte [29],100%
same,inhibition at 50 µM,Monocyte [30],100%
same,viability at 50 µM,[31],68%
same,viability at 5 µM,[36],80%
same,inhibition at 5 µM,Monocyte [32],88%
CCn1cc(C(=O)N/N=C\c2c(Cl)cccc2Cl)c(=O)c2cc(F)c(N3CCN(C)CC3)cc21,MIC,[37],27 µM
same,Activity,[38],>30%
